Like-named read-outs stand apart in the source and are kept apart here.
Tests used:
[1] = tested on: brine shrimp (Artemia salina Leach); assay: Brine shrimp assay; assay type: in vivo; conditions: for LC50: 24 hours, 2% DMSO
From the text: Toxicity—Brine Shrimp Assay
The brine shrimp assay procedure determines LC50 values of active compounds. Activities of a broad range of known active compounds are manifested as toxicity to brine shrimp (Artemia salina Leach). There are many applications of the assay including analysis of toxic substances, anaesthetics, morphine-like substances and cocarcinogenicity of phorbol esters.
DMSO (dimethyl sulfoxide) was the solvent of choice because of its good solubilising properties and also because the substances used in the ATPase inhibition assays were already prepared with DMSO.
The method for testing solvent toxicity used was basically that reported by J L McLaughlin in Methods of Plant Biochemistry (1991), vol. 6 (K Hostettman, ed.), Academic Press, London, 1-32. DMSO solutions of the substances to be tested were added directly to the vials containing the brine shrimp. As the concentration of DMSO is that we wished to use was higher than the recommended 1% v/v testing of the toxicity of the DMSO was therefore necessary. The concentrations of DMSO tested on the shrimp, along with the results from the assay which was done in duplicate are listed below.
Brine shrimp toxicity was assayed, except for some minor modifications, according to the method of McLaughlin et al as reported in Brine Shrimp: A convenient bioassay for active plant constituents, B N Meyer, N R Ferrigni, J E Putnam, L B Jacobsen, D E Nichols and J L McLaughlin in Planta Medica (1982), 45, 31-34 and Crown gall tumours on potato discs and brine shrimp lethality: Two simple bioassays for higher plant screening and fractionation. J L McLaughlin. Methods of Plant Biochemistry (1991), vol. 6 (K Hostettman, ed.), Academic Press, London, 1-32. Ten shrimp were transferred to each of the vials and the volume adjusted to 4.9 mL. Each dose was performed in triplicate, including the control. In quick succession, the appropriate volume of additional DMSO for each dose, required to achieve a final concentration of 2%, was added before the appropriate volume of test solution. The vials were gently mixed and the time noted. After 24 hours, the number of survivors were counted and % mortality was determined. The test compounds were assayed at concentrations of 100 μM, 25 μM, 5 μM, 1 μM and 0.2 μM (and where appropriate concentrations of 0.04 μM and 0.008 μM).
The brine shrimp were able to survive without food in the vials over the 24 hour period and were therefore not fed.
The dose-response curves were constructed using the Sigmaplot computer program and the LC50 value was calculated from the intersection point of the curve and the 50% mortality line. The LC50 values were expressed in both μM and μg/mL.
For substances with low toxicity, the greater sign “>” indicated the highest concentration at which the assay was carried out as precipitation of the substances occurred above that concentration.

[2] = tested on: brine shrimp (Artemia salina Leach); conditions: in vivo; cited from earlier work
guinea pig atria = assay: Organ bath assay, isolated guinea pig atria (rate and force of contraction)
Experimental: Male guinea pigs, 3-4 weeks old, were killed by rapid cervical dislocation without induced anaesthesia. Then, the guinea pigs were dissected to isolate the atria which were immediately mounted vertically in an organ bath containing Krebs-Henseleit solution oxygenated with carbogen.
One gram tension was applied to the atria and the base line continuously adjusted until it was stable for 20 mins. The rate and force of contraction were recorded using Mac Lab equipment.
Test substances in DMSO were assayed to a maximum concentration of 50 μM at a final concentration of 2.5% of DMSO.

left atrium rat = assay: Cardiovascular and neuro-effector junction activities: left atrium, rat; conditions: 10^−7-3 × 10^−5 M
From the text: (§1) Therefore, further investigation of the physicochemical properties as well as mechanism(s) of action of these substances, including gingerols, is required in relation to cardiotonicity. The mode of action of gingerols as cardiotonic agents has been […] and it was proposed that they act by direct stimulation of the cardiac SR Ca^2+-ATPase. This may load extra calcium into the intracellular stores in the sarcoplasmic reticulum allowing more calcium to be released on stimulation of the heart resulting in increased cardiac contractility. […] The cardiotonic action of 1-(4-hydroxy-3-methoxyphenyl)dodecan-3-ol [3.93] was confirmed from independent studies, carried out at our request as part of our agreement with Johnson & Johnson Research Ltd (J&J), by Prof. James Angus from the University of Melbourne. […] A tachycardial effect of the substance on guinea pig atria was, however, observed at significant rate, 50-60% of isoprenaline Emax and the response was not α- or β-adrenoceptor mediated.
(§2) Cardiovascular and Neuro-effector Junction Activities of Gingerol Analogues

vas deferens rat = assay: Cardiovascular and neuro-effector junction activities: vas deferens, rat; conditions: 10^−4 M
From the text: as §1, §2

diaphragm rat = assay: Cardiovascular and neuro-effector junction activities: diaphragm, rat; conditions: 10^−5 M
From the text: as §1, §2

left atrium guinea pig = assay: Cardiovascular and neuro-effector junction activities: left atrium, guinea pig
Experimental: In later studies positive inotropic activity was observed as a 50% increase on driven guinea pig left atria at 10 μM.
No effect was observed on nerve stimulation in atria.
as §1, §2

cardiac Purkinje fibres = assay: Cardiac electrophysiology on Purkinje fibres; parameters: species or system dog; conditions: up to 10 μM
Experimental: Cardiac Electrophysiological Activities of Gingerol and its Analogue
The basic cardiac electrophysiological properties were assessed using cardiac Purkinje fibres obtained from adult mongrel dogs.
Electrophysiology was carried out on dog heart purkinje fibre to test for potential arrhythmia. […] At high concentration (50 μM), however, [8]-gingerol reduced approximate 80% and 50% of action potential duration at 50% and 90% repolarisations respectively. Whereas the analogue reduced 75% and 30% respectively.

[3] = tested on: capsaicin-sensitive DRG neuronal cells; assay: [Ca^2+]i transients in DRG neuronal cells in culture; assay type: cell-based, rat
From the text: Effect of Gingerol Analogues Towards Rat Dorsal Root Ganglia
Capsaicin, the pungent component in peppers of the Capsicum genus, family Solanaceae, has the ability to excite a subset of sensory neurons, which include polymodal nociceptors and warm thermoceptors (Fitzgerald, 1983) by opening non-selective cation channels that are permeable to Na^+, K^+, and Ca^2+ (Bevan and Szolcsanyi, 1990). It has been shown that capsaicin evoked a concentration-dependent rise in [Ca^2+]i in cultured dorsal root ganglion neurons. The duration of the elevation of [Ca^2+]i depended on the concentration of capsaicin (Choleswinski, et al., 1993). In this investigation peak [Ca^2+]i transient measurements are used as a model for testing gingerol analogues.
DRG from neonatal (3-5 days old) rat or adult Sprague-Dawley rats were incubated in Hanks CMF saline with 0.05% collagenase and 0.25% trypsin for 25 min at 37° C. Individual cells were obtained by trituration with fire polished Pasteur pipettes of diminishing diameters. Neurones were isolated from the cell suspension in 30% Percoll and then plated on collagen coated coverslips or in 24-well plates, then cultured in neurobasal medium with B27 supplement, 50 ng/ml 2.5 S nerve growth factor, 2 mM 1-glutamine and 100 U/ml penicillin/streptomycin. Cultures were maintained at 37° C. with 5% CO2. 30% Percoll increases the percentage of capsaicin-sensitive DRG neurones up to 70%. For peak [Ca^2+]i transients measurements, cells on coverslips were incubated with 5 μM Fura-2 AM for 30 min at 37° C. The coverslips were then mounted on a chamber attached to a fast sample application perfusion system which allows changing solutions in the second range. Recordings were made on the stage of a Nikon Diaphot inverted microscope fitted with a Nikon 40×Fluo (NA 0.85) DL Ph3 or 40×Fluo (NA 1.3) oil objective. [Ca^2+]i was calculated from dual excitation wavelength (340/380 nm) fluorescence measurements following an intracellular calibration procedure by the Grynkiewicz equation, using MCID M2/M4 v.3.0 (Imaging Res. Inc.) software. Cells were continuously perfused with a solution consisting of 140 mM NaCl, 2 mM CaCl2, 5 mM KCl, 20 mM HEPES, 10 mM glucose, pH 7.4. To study KCl evoked depolarisation, 50 mM NaCl was replaced by equimolar KCl. Cytoplasmic localisation of Fura-2 was tested with the Mn^2+ quenching technique (Dedov and Roufogalis, 1998). All experiments were performed at room temperature (20-23° C.).
Typical changes in [Ca^2+]i upon depolarisation were evoked by 50 mM KCl and by application of 1 μM capsaicin; both were applied for 30 sec. Capsaicin-evoked peak [Ca^2+]i transients are characterised by a fast rise and long-steady state [Ca^2+]i clearance from the cytoplasm. In capsaicin-sensitive cells the half-time of cytoplasmic Ca^2+ clearance was proportional to the amplitudes of peak [Ca^2+]i transients.
To examine the effect of gingerol derivatives, one or several compounds in succession at a concentration of 10 μM were applied for 1 min to the DRG neuronal cells followed by washing out for 4 min with physiological solution. To the capsaicin-sensitive cells, 10 μM capsaicin and 50 mM KCl were applied, respectively, to confirm the viability of the cells. In addition, morphological appearances of the cells were also examined at the end of experiment. […]

right atrium rat = assay: Cardiovascular and neuro-effector junction activities: right atrium, rat; conditions: 3 × 10^−7-3 × 10^−6 M, with propranolol present
From the text: as §1, §2

right atrium guinea pig = assay: Cardiovascular and neuro-effector junction activities: right atrium, guinea pig; conditions: 10^−7-3 × 10^−5 M; not blocked by praz., prop.
From the text: as §1, §2

rat mesenteric artery = assay: Vasodilation on rat mesenteric artery
From the text: The proposed mechanism of neuropeptide release by 1-(4-hydroxy-3-methoxyphenyl)dodecan-3-ol, similar to that of capsaicin, was supported by studies in blood vessels. […] This contrasts with capsaicin which has similar activity in Guinea pig atria (force and rate) and relaxing rat mesenteric artery.

[4] = tested on: rabbit platelet-rich plasma; assay: Antiplatelet aggregation screen with arachidonic acid as substrate; assay type: cell-based

COc1cc([C@@H]2c3cc4c(cc3[C@H](O)[C@H]3COC(=O)[C@H]23)OCO4)cc(OC)c1OC [podophyllotoxin, reference compound]
LC50 [1]: 1.6 µg/mL
LC50 ([1]; read-out: LC50): 3.8 µM
LC50 determined by Meyer et al. (1982) [2]: (2.4) μg/ml

CCCCCCCC(O)CC(=O)c1ccc(O)c(OC)c1 (stereo not shown) [3-hydroxy-1-(4-hydroxy-3-methoxyphenyl)decan-1-one]
FORCE OF CONTRACT^n (inotropic activity), result in words (guinea pig atria; assayed to a maximum of 50 μM): negative inotropic activity
HEART RATE (chronotropic activity), result in words (guinea pig atria; assayed to a maximum of 50 μM): negative chronotropic activity
effect on left atrium rat (left atrium rat): no change
effect on vas deferens rat (vas deferens rat): no effect
effect on diaphragm rat (diaphragm rat): no effect
effect on isoprenaline response, left atrium guinea pig (left atrium guinea pig; up to 30 μM): no effect
effect on rate of depolarization, amplitude and duration of action potential (50% and 90%) (cardiac Purkinje fibres; listed as 3-hydroxy-1-(4-hydroxy-3-methoxyphenyl)decanone): only a small effect
effect on rate of depolarization, amplitude and duration of action potential (50% and 90%) (cardiac Purkinje fibres; listed as 3.92): insignificant effect
Peak [Ca^2+]i (Average ± SD) ([3]; 10 μM applied for 1 min, 2 mM Ca^2+): 0 nM

CCCCCCCCCC(O)CCc1ccc(O)c(OC)c1 (stereo not shown) [1-(4-hydroxy-3-methoxyphenyl)dodecan-3-ol]
potency of one enantiomer relative to the other in increasing force of contraction in guinea pig atria (guinea pig atria): 100 fold
FORCE OF CONTRACT^n, ↑ increase (guinea pig atria; @ 10 (μM)): ↑108% @ 10
effect on rate, right atrium rat (right atrium rat): tachycardia
effect on rate, right atrium guinea pig (right atrium guinea pig): tachycardia
arrhythmia on guinea pig driven left atria (left atrium guinea pig; 1 μM): followed by arrhythmia
inotropic effect, % isopren. max., left atrium guinea pig (left atrium guinea pig; 10^−6-3 × 10^−5 M): ˜20%
inotropism, left atrium guinea pig (left atrium guinea pig; 10^−6-3 × 10^−5 M (not in rat)): inotropic
potency (EC50) for relaxation of mesenteric artery relative to inotropic effect in guinea pig atrium (rat mesenteric artery): 100 fold
relaxing vasopressin-contracted rat mesenteric small arteries (rat mesenteric artery; 10^−8 to 10^−6 M, 200-300 μm diameter): very potent
platelet function via adenosine diphosphate or thromboxane A mechanisms [4]: did not affect
antiplatelet aggregation potency relative to indomethacin ([4]; arachidonic acid as substrate, listed as 3-hydroxy-1-(4-hydroxy-3-methoxyphenyl)dodecane): three time more potent than the indomethacin reference compound
toxicity towards brine shrimp, in words ([1]; in vivo): low toxicity
evoked [Ca^2+]i transients in Ca^2+-free medium or with ruthenium red ([3]; Ca^2+-free medium or ruthenium red (1 μM)): abolished or greatly diminished
